{
  "source": "patent US20140005216A1",
  "about": "“Nalmefene for reduction of alcohol consumption in specific target populations” (H. Lundbeck A/S, priority 2012, published 2014)",
  "key": {"[1]": {"test_system": "patients with alcohol dependence", "assay": "Study 12014A: randomised, double blind, placebo controlled 6 month efficacy study, reduction of alcohol consumption", "format": "in vivo, human", "conditions": "nalmefene 18 mg as-needed, MMRM", "description": "(§1) The efficacy of nalmefene on the reduction of alcohol consumption in patients with alcohol dependence (DSM-IV) was evaluated in two efficacy studies (Study 12014A and Study 12023A). Both studies were randomised, double blind, two-parallel group, placebo controlled, and after 6 months of treatment, patients receiving nalmefene were re-randomised to receive either placebo or nalmefene in a 1 month run out period. The efficacy of nalmefene was also evaluated in a randomised, double blind, two parallel group, placebo controlled 1 year safety study (Study 12013A). The studies included 1941 patients, 1144 of whom were treated with nalmefene 18 mg in an as-needed dosing regimen.\n(§2) The studies were conducted applying an outpatient setting without preceding detoxification. Higher CIWA withdrawal scores at Screening as well as a history of delirium tremens and seizures would be indicative for the necessity of prior inpatient detoxification. Patients with abuse of substance other than alcohol and subjects with significant depressive or psychotic co-morbidity were excluded.\n(§3) The studies included outpatients, aged ≧18 years, with a primary diagnosis of alcohol dependence. A patient was eligible for participation in the study if, in the 4 weeks preceding the Screening Visit (Baseline period), he/she had >6 HDDs, at least a medium DRL (calculated as mean daily alcohol consumption in g/day i.e. >40 g/day for men and >20 g/day for women calculated as mean daily alcohol consumption over the 4 week period preceding the screening visit), and ≦14 consecutive abstinent days. The timeline followback (TLFB) method was used to obtain estimates of the patient's daily drinking.\n(§4) The studies were conducted over a 34 week period (12 visits) in total and consisted of four sequential periods: a 2-week screening period, a 24-week double-blind treatment period, a 4-week double-blind placebo-controlled run-out in each of the treatment arms and finally a 4-week safety follow-up. One to two weeks after the Screening Visit the patients were randomised 1:1 to 24 weeks of as-needed, double-blind treatment (Main Treatment Period: MTP) with nalmefene (18 mg) or placebo. The patients who completed 24 weeks of double-blind treatment entered a 4-week, double-blind Run-out Period (ROP). The patients randomised to nalmefene were re-randomised 1:1 to receive nalmefene (18 mg, as-needed) or placebo and the patients randomised to placebo continued on placebo.\n(§5) The Timeline Follow-back (TLFB) method was used to collect self-reported drinking data (alcohol consumption).\n(§6) At the initial visit, the patients' clinical status, social situation, and alcohol consumption pattern were evaluated (based on patient reporting). After a 1- to 2-week observation period the drinking risk level was re-assessed (i.e. the […] daily alcohol consumption over the 1-2 week assessment period was calculated), and treatment with nalmefene was initiated together with counseling with focus on motivating the patients to adhere to the treatment and to change their drinking behavior. In all the studies, a motivational and adherence enhancing intervention, according to the BRENDA model, was administered to all the patients to support the patients in changing their behavior and to enhance adherence to treatment.\n(§7) The patients' alcohol intake (g/day) was estimated based on national definitions of standard units (subsequently converted into grams of alcohol). To define the standard units, a standard drink conversion card was distributed to each patient at the Screening Visit. Each patient was also provided with a calendar that he/she could use to support his/her input to the TLFB, or he/she could use a personal calendar, if preferred. For all the variables derived from the TLFB data, baseline was defined as the month (that is 4 weeks/28 consecutive days) preceding the Screening Visit. The investigational medicinal product (IMP) was taken as-needed. […]"}, "[2]": {"test_system": "patients with alcohol dependence", "assay": "Study 12023A: randomised, double blind, placebo controlled 6 month efficacy study, reduction of alcohol consumption", "format": "in vivo, human", "conditions": "nalmefene 18 mg as-needed, MMRM", "description": "as §1, §2, §3, §4, §5, §6, §7"}, "[3]": {"test_system": "patients with alcohol dependence", "assay": "Study 12013A: randomised, double blind, placebo controlled 1 year safety study, reduction of alcohol consumption", "format": "in vivo, human", "conditions": "nalmefene 18 mg as-needed, MMRM", "description": "as §1, §2, §3, §5, §6\nThe patients' alcohol intake (g/day) was estimated based on national definitions of standard units (subsequently converted into grams of alcohol). To define the standard units, a standard drink conversion card was distributed to each patient at the Screening Visit. Each patient was also provided with a calendar that he/she could use to support his/her input to the TLFB, or he/she could use a personal calendar, if preferred. For all the variables derived from the TLFB data, baseline was defined as the month (that is 4 weeks/28 consecutive days) preceding the Screening Visit. The investigational medicinal product (IMP) was taken as-needed. Each patient was instructed to take a maximum of one tablet on each day the patient perceived a risk of drinking alcohol, preferably 1 to 2 hours prior to the anticipated time of drinking. If the patient had started drinking alcohol without taking nalmefene, the patient was to take one tablet as soon as possible. The dates when nalmefene was taken/not taken were recorded using the TLFB method. The chosen comparator was placebo\nThe efficacy of nalmefene was measured using two co-primary endpoints: the change in the monthly number of heavy drinking days (HDDs) and the change in the mean daily total alcohol consumption (TAC) per month (=28 days). A HDD was defined as a day with a consumption ≧60 g alcohol for men and ≧40 g for women. […]"}, "[4]": {"test_system": "patients with alcohol dependence", "assay": "Three Lundbeck phase III studies (12014A, 12023A, 12013A) taken together, HDDs and TAC versus placebo", "format": "in vivo, human", "conditions": "for Effect on HDDs and TAC compared to placebo, relative to the total population: all three studies", "source_text": "The efficacy of nalmefene in the reduction of alcohol consumption in patients with alcohol dependence (DSM-IV) has been evaluated in two efficacy studies (Study 12014A and Study 12023A) and one safety study (Study 12013A) as described in the examples. All three studies were randomized, double blind, parallel-group and placebo-controlled.\nThe studies included outpatients, aged […], with a primary diagnosis of alcohol dependence. A patient was eligible for participation in the study if, in the 4 weeks preceding the Screening Visit (Baseline period), he/she had >6 HDDs, at least a medium DRL (calculated as mean daily alcohol consumption in g/day i.e. >40 g/day for men and >20 g/day for women calculated as mean daily alcohol consumption over the 4 week period preceding the screening visit), and ≦14 consecutive abstinent days. The timeline followback (TLFB) method was used to obtain estimates of the patient's daily drinking.\nAt the initial visit (screening visit), the patients' clinical status, social situation, and alcohol consumption pattern were evaluated. After a 1- to 2-week observation period the drinking risk level was re-assessed by calculating mean daily alcohol consumption in g/day over the 1- to 2-week observation period, and treatment with nalmefene was initiated together with counseling with focus on motivating the patients to adhere to the treatment and to change their drinking behavior.\nThe efficacy of nalmefene was measured using two co-primary endpoints: the change in the monthly number of heavy drinking days (HDDs) and the change in the mean daily total alcohol consumption (TAC) per month (=28 days).\nThe efficacy of nalmefene on the reduction of alcohol consumption in patients with alcohol dependence (DSM-IV) was evaluated in two efficacy studies (Study 12014A and Study 12023A). […] The efficacy of nalmefene was also evaluated in a randomised, double blind, two parallel group, placebo controlled 1 year safety study (Study 12013A). […]\nThe studies included outpatients, aged ≧18 years, with a primary diagnosis of alcohol dependence. A patient was eligible for participation in the study if, in the 4 weeks preceding the Screening Visit (Baseline period), he/she had >6 HDDs, at least a medium DRL (calculated as mean daily alcohol consumption in g/day i.e. >40 g/day for men and >20 g/day for women calculated as mean daily alcohol consumption over the 4 week period preceding the screening visit), and ≦14 consecutive abstinent days. […]\nAt the initial visit, the patients' clinical status, social situation, and alcohol consumption pattern were evaluated (based on patient reporting). […]"}, "alcohol dependence [5]": {"test_system": "alcohol dependence", "conditions": "20 to 80 mg daily oral dosing; Mason et al. 1999; cited from earlier work"}, "alcohol dependence [6]": {"test_system": "alcohol dependence", "conditions": "5, 20 and 40 mg daily doses; Anton et al. 2004; cited from earlier work"}, "alcohol dependence [7]": {"test_system": "alcohol dependence", "conditions": "20 mg taken when the patient experienced a craving for alcohol; Karhuvaara et al. 2007; cited from earlier work"}, "[8]": {"conditions": "High DRL at baseline & randomisation"}},
  "note": "Entries after “also recorded” stand apart in the source; their conditions may differ.",
  "data": [
    {"smiles": "C=C1CC[C@@]2(O)[C@H]3Cc4ccc(O)c5c4[C@@]2(CCN3CC2CC2)[C@H]1O5", "note": "[nalmefene, 17-(cyclopropylmethyl)-4,5-alpha-epoxy-6-methylenemorphinan-3,14-dial]", "values": [
      {"measurement": "Mean difference to placebo in the change from baseline to month 6, HDD", "setting": "[1]; [8]", "result": "−3.7", "unit": "days/month"},
      {"measurement": "Mean difference to placebo in the change from baseline to month 6, TAC", "setting": "[1]; [8]", "result": -18.3, "unit": "g/day"},
      {"measurement": "Mean difference to placebo in the change from baseline to month 6, HDD", "setting": "[1]; High DRL at baseline", "result": "−2.6", "unit": "days/month"},
      {"measurement": "Mean difference to placebo in the change from baseline to month 6, TAC", "setting": "[1]; High DRL at baseline", "result": -12.2, "unit": "g/day"},
      {"measurement": "Mean difference to placebo in the change from baseline to month 6, HDD", "setting": "[1]; Total excl. ERs", "result": "−3.1", "unit": "days/month"},
      {"measurement": "Mean difference to placebo in the change from baseline to month 6, TAC", "setting": "[1]; Total excl. ERs", "result": -14.5, "unit": "g/day"},
      {"measurement": "Mean difference to placebo in the change from baseline to month 6, HDD", "setting": "[1]; Total population", "result": "−2.3", "unit": "days/month"},
      {"measurement": "Mean difference to placebo in the change from baseline to month 6, TAC", "setting": "[1]; Total population", "result": -11.0, "unit": "g/day"},
      {"measurement": "Mean difference to placebo in the change from baseline to month 6, HDD", "setting": "[2]; [8]", "result": "−2.7", "unit": "days/month"},
      {"measurement": "Mean difference to placebo in the change from baseline to month 6, TAC", "setting": "[2]; [8]", "result": -10.3, "unit": "g/day"},
      {"measurement": "Mean difference to placebo in the change from baseline to month 6, HDD", "setting": "[2]; High DRL at baseline", "result": "−2.1", "unit": "days/month"},
      {"measurement": "Mean difference to placebo in the change from baseline to month 6, TAC", "setting": "[2]; High DRL at baseline", "result": -6.6, "unit": "g/day"},
      {"measurement": "Mean difference to placebo in the change from baseline to month 6, HDD", "setting": "[2]; Total excl. ERs", "result": "−2.0", "unit": "days/month"},
      {"measurement": "Mean difference to placebo in the change from baseline to month 6, TAC", "setting": "[2]; Total excl. ERs", "result": -7.0, "unit": "g/day"},
      {"measurement": "Mean difference to placebo in the change from baseline to month 6, HDD", "setting": "[2]; Total population", "result": "−1.7", "unit": "days/month"},
      {"measurement": "Mean difference to placebo in the change from baseline to month 6, TAC", "setting": "[2]; Total population", "result": -5.0, "unit": "g/day"},
      {"measurement": "Mean difference to placebo in the change from baseline to month 6, HDD", "setting": "[3]; [8]", "result": "−2.6", "unit": "days/month"},
      {"measurement": "Mean difference to placebo in the change from baseline to month 6, TAC", "setting": "[3]; [8]", "result": -15.3, "unit": "g/day"},
      {"measurement": "Mean difference to placebo in the change from baseline to month 6, HDD", "setting": "[3]; High DRL at baseline", "result": "−1.1", "unit": "days/month"},
      {"measurement": "Mean difference to placebo in the change from baseline to month 6, TAC", "setting": "[3]; High DRL at baseline", "result": -5.6, "unit": "g/day"},
      {"measurement": "Mean difference to placebo in the change from baseline to month 6, HDD", "setting": "[3]; Total excl. ERs", "result": "−1.4", "unit": "days/month"},
      {"measurement": "Mean difference to placebo in the change from baseline to month 6, TAC", "setting": "[3]; Total excl. ERs", "result": -7.9, "unit": "g/day"},
      {"measurement": "Mean difference to placebo in the change from baseline to month 6, HDD", "setting": "[3]; Total population", "result": "−0.9", "unit": "days/month"},
      {"measurement": "Mean difference to placebo in the change from baseline to month 6, TAC", "setting": "[3]; Total population", "result": -3.5, "unit": "g/day"},
      {"measurement": "Reducing the number of HDDs and TAC versus placebo", "setting": "[4]; month 6, total study population, two 6 month efficacy studies and 12 month safety study", "result": "superior to placebo"},
      {"measurement": "Effect on HDDs and TAC compared to placebo, relative to the total population", "setting": "[4]; patients that were not ERs (total excluding Early Reducers)", "result": "more pronounced"},
      {"measurement": "Effect on HDDs and TAC compared to placebo, relative to the total population", "setting": "[4]; patients with a high DRL at baseline", "result": "more pronounced"},
      {"measurement": "Effect on HDDs and TAC compared to placebo, relative to the total population", "setting": "[4]; patients with a high DRL both at baseline and at randomisation", "result": "more pronounced; also recorded: even further pronounced"},
      {"measurement": "Effect in the management of alcohol dependence", "setting": "alcohol dependence [5]", "result": "good effect"},
      {"measurement": "Superiority over placebo in the management of alcohol dependence", "setting": "alcohol dependence [6]", "result": "no evidence of superiority of nalmefene over placebo"},
      {"measurement": "Effect over placebo in the management of alcohol dependence", "setting": "alcohol dependence [7]", "result": "good effect of nalmefene over placebo"}
    ]}
  ]
}
